{
  "source": "patent EP0031883A1",
  "about": "“Antimicrobial agent containing hydroxy butylimidazole derivatives” (BAYER AG, priority 1979, dated 1981)",
  "test_system": "Candida",
  "assay": "Antimicrobial in-vivo activity (oral) in mouse candidosis",
  "parameters": "species or system Mäuse",
  "details": "SPF-CF1 mice infected i.v. with 1 - 2 x 10^6 Candida cells; 50 - 100 mg/kg oral, one hour before and seven hours after infection; untreated controls about 5 % survival on day 5",
  "description": "Mäuze vom Typ SPF-CF1 wurden intravenös mit 1 - 2 x 10^6 logaritmisch wachsenden Candida-Zellen, die in physiologischer Kochsalzlösung suspendiert waren, infiziert. Eine Stunde vor und sieben Stunden nach der Infektion werden die Tiere mit jeweils 50 - 100 mg/kg Körpergewicht der Präparate oral behandelt.\nUrbehandelte Tiere starben 3 bis 6 Tage post infektionen. Die Überlebensrate am 5. Tag post infektionen betrug bei unbehandelten Kontrolltieren etwa 5 %.",
  "data": [
    {"smiles": "Clc1ccc(COC(Cn2ccnc2)c2ccc(Cl)cc2Cl)c(Cl)c1", "note": "(stereo not drawn) [Miconazol®, 1-[2,4-Dichlor-β-(2,4-dichlorbenzyloxy)-phenethyl]-imidazolnatrium]", "values": [
      {"measurement": "Wirkung", "result": "keine Wirkung"}
    ]},
    {"smiles": "CC(C)(C)C(O)(Cn1ccnc1)c1ccc(-c2ccc(Cl)cc2)cc1", "note": "(centres unmarked) [Verbindung 2, 1-(4-p-Chlorbiphenylyl)-1-(tert.-butyl)-2-(imidazol-1-yl)-ethan-1-ol]", "values": [
      {"measurement": "Wirkung", "result": "sehr gute Wirkung"}
    ]}
  ]
}
